Test results: patent US20250090729A1, “Methods and Products to Detect, Minimize and Treat TRAP-Related Tissue Reactions and Tissue Injury Associated With Medical Devices” (priority 2022, published 2025)
Entries after “also recorded” stand apart in the source; their conditions may differ.

Tests used:
human neutrophils = assay: In vitro TRAP formation by human blood neutrophils (PMNs) cultured with test agents; format: cell-based; conditions: for TRAP formation in human neutrophils: FIG. 12, human blood neutrophils cultured with agent; for TRAP formation at higher dilution than 1/5: PMNs; for TRAP formation at 1/5 dilution: PMNs of 3 donors, 4 hr timeline, vs negative control
Method: From left to right and top to bottom (A)-(F), media only (A) and PMA (B), a known inducer of TRAPS in human neutrophils, present positive control.
PMA=phorbol myristate acetate; Insulin is Humalog (Lilly); LPS is a bacterial endotoxin (known inducers of TRAPs.
Green color (light color in grayscale) indicates the existence of TRAPs. In each slide set, the upper left slide is the control with media only. The upper right slide is Humalog insulin in media at 1/5 dilution (0.6 mg m-cresol/ml, with 0.6 mg/ml of insulin), PMA concentrations are in ng/ml and the lower right slide is m-cresol at 1/5 dilution (0.6 mg/ml of m-cresol). In this study, the media was RPMI 1640 (phenol free).
In these examples, human blood neutrophils were placed in a culture dish+/−sensors in vitro. […] Brightfield refers to the use of non-fluorescent white light (78a). […] In FIG. 79, neutrophils were added to tissue culture dishes that contained a sensor (commercial type #1) to see if the sensor could directly trigger neutrophil death and TRAP release which we detect with fluorescent dyes like sytox green. FIG. 79a-c had no neutrophils added to the sensors. In FIG. 79d-f neutrophils were added. The sytox green binds to DNA, and fluoresces green in color photo, or white in black and white photos. […] “Merged” refers to photos in which the non-fluorescent (brightfield) and fluorescent photos are merged into a single photo FIG. 79c.

porcine skin = assay: In vivo TRAP formation at infusion/injection sites in swine skin (H&E histology); conditions: infused continuously over a 5- to 7-day period
Source text: The presence of the purple web appearance is indicated by the black arrows.
White area in the center of the image is the previous location of the injection port.

Structure (SMILES): CNc1ccc2oc(C[C@H]3O[C@@]4(CC[C@H]3C)O[C@H]([C@H](C)C(=O)c3ccc[nH]3)[C@H](C)C[C@H]4C)nc2c1C(=O)O [A23187, calcimycin]
- TRAPs in neutrophils, positive control (human neutrophils; FIG. 77 d-f, human neutrophils in culture dish): triggers TRAPs

Structure (SMILES): CCCCCCCCCCCCCC(=O)O[C@@H]1[C@@H](C)[C@@]2(O)[C@@H](C=C(CO)C[C@]3(O)C(=O)C(C)=C[C@@H]23)[C@@H]2C(C)(C)[C@]12OC(C)=O [PMA, phorbol myristate acetate]
- TRAPs at 30 minutes (human neutrophils; FIG. 60B, human PMNs, RPMI 1640): presence of TRAPs
- TRAPs at 60 minutes (human neutrophils; FIG. 60C, Humalog insulin 1/5 dilution): significant TRAPs
- TRAP formation in PMNs of 3 donors (human neutrophils; dilution not specified, positive controls and insulin fibrils lacking PP): trigger TRAP formation; also recorded: triggered TRAPs
- time after exposure until TRAPs are triggered (human neutrophils; human PMNs, commercial insulin and m-cresol at 1/5 dilution): ≤ 60 min

Structure (SMILES): Cc1cccc(O)c1 [m-cresol]
- TRAP formation in human neutrophils (human neutrophils): trigger TRAP formation
- TRAPs from 120 minutes to 150 minutes (human neutrophils; FIGS. 60E-60F, 1/5 dilution (0.6 mg/ml m-cresol)): significant increase in the presence of TRAPs
- number and size of TRAPs from 180 minutes to 240 minutes (human neutrophils; FIGS. 60G-60I, 1/5 dilution): remained relatively stable
- TRAP formation at higher dilution than 1/5 (human neutrophils): weak to no TRAP formation
- TRAP formation at 1/5 dilution (human neutrophils): strong
- TRAPS in swine tissue (porcine skin): presence of TRAPS

Structure (SMILES): Oc1ccccc1 [phenol]
- TRAP formation in human neutrophils (human neutrophils): trigger TRAP formation
- TRAP formation at higher dilution than 1/5 (human neutrophils): weak to no TRAP formation
- TRAP formation at 1/5 dilution (human neutrophils): triggered TRAP formation
- TRAP formation at 1/5 dilution (human neutrophils; listed as Phenol): strong traps
